Measurements as given in ChEMBL document CHEMBL1201862, “PubChem BioAssay data set” (2004).
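In this assay, cells in 96-well plates receive the compound at five concentrations for 48 hours. Endpoints are linearly interpolated between the surrounding concentrations. GI50 marks 50% less growth.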 Active and inactive are the calls of the source. No stated cut-off is given here; in the data, active = GI50 up to about 1.1 µM and inactive = higher.

How the values were obtained:
Test in all cases: NCI tumour cell line growth inhibition, 48 h
[1] = system: HOP-92
[2] = system: UACC-257
[3] = system: T47D
[4] = system: COLO 205
[5] = system: UACC-62
[6] = system: SW-620
[7] = system: MDA-N
[8] = system: SF-268
[9] = system: SF-295
[10] = system: Malme-3M
[11] = system: SK-MEL-5
[12] = system: CAKI-1
[13] = system: EKVX
[14] = system: ACHN
[15] = system: SK-OV-3
[16] = system: OVCAR-8
[17] = system: A549
[18] = system: UO-31
[19] = system: LOX IMVI
[20] = system: NCI-H522
[21] = system: MCF7
[22] = system: SN12C
[23] = system: HT-29
[24] = system: SNB-75
[25] = system: HOP-62
[26] = system: SR
[27] = system: HL-60
[28] = system: HCT-116
[29] = system: SNB-19
[30] = system: HCT-15
[31] = system: NCI-H23
[32] = system: OVCAR-4
[33] = system: MDA-MB-231
[34] = system: OVCAR-3
[35] = system: A498
[36] = system: 786-0
[37] = system: NCI/ADR-RES
[38] = system: KM12
[39] = system: RPMI-8226
[40] = system: CCRF-CEM
[41] = system: MOLT-4
[42] = system: IGROV-1
[43] = system: M14
[44] = system: PC-3
[45] = system: SK-MEL-28
[46] = system: DU-145
[47] = system: HCC 2998
[48] = system: Hs-578T
[49] = system: MDA-MB-435
[50] = system: RXF 393
[51] = system: NCI-H460
[52] = system: K562
[53] = system: SF-539
[54] = system: U-251
[55] = system: SK-MEL-2
[56] = system: TK-10
[57] = system: NCI-H226
[58] = system: OVCAR-5

Measured: GI50

O=C1NC(=O)C23C(=O)NC(=O)C12C1C=CC3CC1 (configuration not stated)
inactive: [1] > 10 µM | [2] > 10 µM | [3] > 10 µM | [4] > 10 µM | [5] > 10 µM | [6] > 10 µM | [7] > 10 µM | [8] > 10 µM | [9] > 10 µM | [10] > 10 µM | [11] > 10 µM | [12] > 10 µM | [13] > 10 µM | [14] > 10 µM | [15] > 10 µM | [16] > 10 µM | [17] > 10 µM | [18] > 10 µM | [19] > 10 µM | [20] > 10 µM | [21] > 10 µM | [22] > 10 µM | [23] > 10 µM | [24] > 10 µM | [25] > 10 µM | [26] > 10 µM | [27] > 10 µM | [28] > 10 µM | [29] > 10 µM | [31] > 10 µM | [32] > 10 µM | [33] > 10 µM | [34] > 10 µM | [35] > 10 µM | [36] > 10 µM | [37] > 10 µM | [38] > 10 µM | [39] > 10 µM | [40] > 10 µM | [41] > 10 µM | [42] > 10 µM | [43] > 10 µM | [44] > 10 µM | [45] > 10 µM | [46] > 10 µM | [47] > 10 µM | [48] > 10 µM | [49] > 10 µM | [50] > 10 µM | [51] > 10 µM | [52] > 10 µM | [53] > 10 µM | [54] > 10 µM | [55] > 10 µM | [56] > 10 µM | [57] > 10 µM
> 10 µM: [30]

Cn1c2c(c3ccccc31)CCN1C(=O)CCC21 (configuration not stated)
> 10 µM: [30]
inactive: [1] > 10 µM | [2] > 10 µM | [3] > 10 µM | [4] > 10 µM | [6] > 10 µM | [7] > 10 µM | [8] > 10 µM | [9] > 10 µM | [10] > 10 µM | [11] > 10 µM | [12] > 10 µM | [13] > 10 µM | [14] > 10 µM | [15] > 10 µM | [16] > 10 µM | [18] > 10 µM | [19] > 10 µM | [20] > 10 µM | [21] > 10 µM | [22] > 10 µM | [23] > 10 µM | [24] > 10 µM | [25] > 10 µM | [26] > 10 µM | [27] > 10 µM | [29] > 10 µM | [31] > 10 µM | [32] > 10 µM | [33] > 10 µM | [34] > 10 µM | [35] > 10 µM | [36] > 10 µM | [37] > 10 µM | [38] > 10 µM | [39] > 10 µM | [40] > 10 µM | [41] > 10 µM | [42] > 10 µM | [43] > 10 µM | [44] > 10 µM | [45] > 10 µM | [46] > 10 µM | [47] > 10 µM | [48] > 10 µM | [49] > 10 µM | [50] > 10 µM | [51] > 10 µM | [52] > 10 µM | [53] > 10 µM | [54] > 10 µM | [55] > 10 µM | [58] > 10 µM | [56] > 10 µM | [57] > 10 µM
